Source: publication PMC5703966, “Systemic clearance and brain distribution of carbazole-based cyanine compounds as Alzheimer’s disease drug candidates” (Scientific Reports, 2017)

What was measured:
[1] = Plasma binding by RED device; assay type: in vitro ADME, human; settings: for plasma binding: human; for f u,plasma %: human plasma, RED device, 4 h, 37 °C; as to all read-outs here: tested at 0.4 µM
Experimental: Nonspecific binding in plasma (f u, plasma), microsomes (f u, mic) and hepatocyte (f u, hep) were determined using the method seen in supplemental information (Supplemental Methods). […]
All validation compounds were incubated at 37 °C over 4 h, and in triplicate. For […]
plasma stability, 10 mM DMSO solutions of SLM and SLOH were diluted to 40 µM (10% DMSO). Plasma […]
shaking water bath (60 oscillations/min approx.). The assay was started by addition of 6 µL aliquots to […]
the plasma (final DMSO incubation concentration 0.1%). […]
(§1) MS/MS. Natural logarithm of peak area ratios (compound peak area normalized by IS peak area) were plotted against time and half-life calculated. […]
(§2) placed into the sample chamber (indicated by the red ring) with 400 µL of PBS into the adjacent chamber.
The plate was sealed with a self-adhesive lid and incubated at 37 °C on an orbital shaker (1.5 g approx.) for 4 h. Aliquots (100 µL) were removed from each side of the insert, and analyzed after protein precipitation using 4 folds acetonitrile (ACN) containing berberine chloride as internal standard (IS) by LC-MS/MS (Analytical me thod seen below). The experimental procedure outlined in the Thermo Scientific RED device systems brochure was adopted in the present study . […]

human hepatocytes = assay: Hepatocyte stability; assay type: in vitro ADME; settings: well-stirred model
Experimental: as §1, §2
The plate was sealed with a self-adhesive lid and incubated at 37 °C on an orbital shaker (1.5 g approx.) for 4 h. Aliquots (100 µL) were removed from each side of the insert, and analyzed after protein precipitation using 4 folds acetonitrile (ACN) containing berberine chloride as internal standard (IS) by LC-MS/MS (Analytical me thod seen below). The experimental procedure outlined in the Thermo Scientific RED device systems brochure was adopted in the present study . The several positive controls […]
In vitro stability in liver microsomes and hepatocytes
Half-life (t1/2) of SLM or SLOH in liver microsomes was determined in duplicate. In phase I reaction, […]
buffer (pH 7.4) including 81 mM Na2HPO4 and 19 mM NaH2PO4 ) at 37 °C, the reaction mixture was prewarmed at 37 °C for 2 minutes before adding NADPH (1.0 mM). In phase II reaction, the compound […]
5 mM MgCl2, 10 μg/mL alamethicin, and 2% (w/v) BSA. […]
reactions were initiated with the addition of UDPGA (5.0 mM). […]

[2] = Hepatocyte binding by RED device; assay type: in vitro ADME
Experimental: The blood cell partitioning was calculated as follows. […] Plasma, liver microsomes and hepatocyte binding by RED device The stability of the compounds in plasma, liver microsomes and hepatocyte were studied to ensure the reliability of the binding data. Hepatocyte was deactivated by leaving them on a bench for 2 days and going through a freeze thaw cycle thereafter. […] Natural logarithm of peak area ratios (compound peak area normalized by IS peak area) were plotted against time and half-life calculated. The spiked plasma solutions, microsomes and hepatocytes (400 µL) after observing stability were placed into the sample chamber (indicated by the red ring) with 400 µL of PBS into the adjacent chamber. […] The experimental procedure outlined in the Thermo Scientific RED device systems brochure was adopted in the present study . The several positive controls were assayed (Table S4). […] For control experiments, NADPH, UDPGA and/or liver microsomes were omitted from these incubations. […] InVitroGROTM HT Medium was used for thawing suspension of cryopreserved hepatocytes. Incubations were conducted in a 96-well flat-bottom polystyrene plate in duplicate. […] 60, 90, 120 minutes by the addition of 4 folds ACN containing berberine chloride as internal standard 5

[3] = human deactivated hepatocytes 0.5 million cells/mL
[4] = mouse deactivated hepatocytes 0.5 million cells/mL

Row | plasma binding [1] | f u,plasma % [1] | Hepatocyte scaled Cl hep (human hepatocytes) | f u,hep, % [2, 3] | f u,hep, % [2, 4] | Compound
1 | > 95% | 0.170 ± 0.0400% | 1 ± 0.167 mL/min/kg | 5.50 ± 0.730^$$ % | 16.0 ± 5.50% | COCCOCCn1c2ccccc2c2cc(/C=C/c3cc[n+](CCO)c4ccccc34)ccc21 [SLOH, (E)-1-(2-hydroxyethyl)-4-(2-(9-(2-(2-metho-xyethoxy)-ethyl)-9H-carbazol-3-yl)vinyl) quinolin-1-ium chloride]
2 | > 95% | 0.100 ± 0.0100% | 0.833 ± 0.167 mL/min/kg | 11.0 ± 0.870^$$ % | 15.0 ± 4.60% | COCCOCCn1c2ccccc2c2cc(/C=C/c3cc[n+](C)c4ccccc34)ccc21.[I-] [SLM, (E)-4-(2-(9-(2-(2-methoxyethoxy)ethyl)-9H-carbazol-3-yl)-vinyl)-1-methyl-quinolin-1-iumiodide]
